The values below come from patent US20070238793A1, “Structural carotenoid analogs or derivatives for the modulation of systemic and/or target organ redox status” (priority 2005, published 2007).

The test system of assay [1] is superoxide anion signal from PMA-stimulated human polymorphonuclear leukocytes (PMNs). In words: Direct superoxide anion scavenging by EPR spectroscopy (DEPMPO spin trap) in PMA-stimulated isolated human neutrophils. The assay is classed as cell-based. As to conditions: millimolar range, water. The protocol: Leukocyte Isolation and Preparation. Human polymorphonuclear leukocytes (PMNs) were isolated from freshly sampled venous blood of a single volunteer by Percoll density gradient centrifugation as described previously. Briefly, each 10 mL of whole blood was mixed with 0.8 mL of 0.1 M EDTA and 25 mL of saline. The diluted blood was then layered over 9 mL of Percoll at a specific density of 1.080 g/mL. After centrifugation at 400×g for 20 min at 20° C., the plasma, mononuclear cell, and Percoll layers were removed. Erythrocytes were subsequently lysed by addition of 18 mL of ice-cold water for 30 s, followed by 2 mL of 10×PIPES buffer (25 mM PIPES, 110 mM NaCl, and 5 mM KCl, titrated to pH 7.4 with NaOH). […] Afterward, PMNs were counted by light microscopy on a hemocytometer. […]
EPR Measurements. […] The microwave frequency was measured with a Model 575 microwave counter (EIP Microwave, Inc., San Jose, Calif.). […]
Instrument settings used in the spin-trapping experiments were as follows: modulation amplitude, 0.32 G; time constant, 0.16 s; scan time, 60 s; modulation frequency, 100 kHz; microwave power, 20 milliwatts; and microwave frequency, 9.76 GHz. The samples were placed in a quartz EPR flat cell, and spectra were recorded. The component signals in the spectra were identified and quantified as reported previously.

For assay [2], the system named is mouse heart (myocardium) redox status. The experiment in a line: Whole-body time-course PEDRI of TEMPONE nitroxide decay in the myocardial region of treated mice. Type of assay: in vivo. As to conditions: 10 mg/kg daily I.V. for 4 days, TEMPONE probe. From the text: Proton electron double resonance imaging (PEDRI) is a recently developed low-field double magnetic resonance technique (Lurie et al. 2002). The technique uses the Overhauser effect to image the distribution of free radicals in biological samples. Of particular interest is that the technique can be extended to whole animals, allowing systemic redox state analysis as well as individual target organ analysis after therapeutic treatment. The in vivo application of the technique requires a balance between the electron paramagnetic resonance (EPR) irradiation frequency and the magnetic field applied: sufficiently low magnetic field must be utilized that allows penetration of the whole animal, while at the same time limiting nonresonant power deposition in the animal. […]
After the mice were placed in the PEDRI resonator, a bolus injection of 0.55-0.6 mL (normalized to the body weight of the individual animal) of 100 mM TEMPONE solution in PBS was given over 50-55 s through the tail vein. A series of time-course PEDRI measurements were then acquired every 10-15 s after the injection of the nitroxide probe solution, until the image intensity reached a minimum (i.e., no nitroxide signal could be detected). […]

In the case of “3,3′-Diphosphoryloxy-β,ε-carotene sodium salt [compound 9]”, the “aqueous superoxide scavenging profile (in words)” value in assay [1] is “slightly increased scavenging”. With `CC1=C(/C=C/C(C)=C/C=C/C(C)=C/C=C/C=C(C)/C=C/C=C(C)/C=C/C2=C(C)C(=O)C(OC(=O)CCC(=O)O)CC2(C)C)C(C)(C)CC(OC(=O)CCC(=O)O)C1=O` (stereo not drawn) [Cardax™, disodium disuccinate derivative of synthetic astaxanthin], the “rate of nitroxide reduction in the mouse heart compared to untreated control animals” value in assay [2] was “slower mean rate of nitroxide reduction”. In assay [2] (mean±SEM, n=4, untreated 0.49±0.08), the “half-time (t) for the decay of the nitroxide signal intensity, myocardial region” value turned out to be 0.99 ± 0.14 min.
